Assay results as given in patent US20100227889A1, “Benzimidazole Derivatives” (priority 2006, published 2010).

Target: T1, human PCaR (Homo sapiens, UniProt P41180)
T1 construct: expressed in transfected cells; host or cells: CCL39 fibroblasts (stably transfected)
T1 sequence (P41180 20-1078): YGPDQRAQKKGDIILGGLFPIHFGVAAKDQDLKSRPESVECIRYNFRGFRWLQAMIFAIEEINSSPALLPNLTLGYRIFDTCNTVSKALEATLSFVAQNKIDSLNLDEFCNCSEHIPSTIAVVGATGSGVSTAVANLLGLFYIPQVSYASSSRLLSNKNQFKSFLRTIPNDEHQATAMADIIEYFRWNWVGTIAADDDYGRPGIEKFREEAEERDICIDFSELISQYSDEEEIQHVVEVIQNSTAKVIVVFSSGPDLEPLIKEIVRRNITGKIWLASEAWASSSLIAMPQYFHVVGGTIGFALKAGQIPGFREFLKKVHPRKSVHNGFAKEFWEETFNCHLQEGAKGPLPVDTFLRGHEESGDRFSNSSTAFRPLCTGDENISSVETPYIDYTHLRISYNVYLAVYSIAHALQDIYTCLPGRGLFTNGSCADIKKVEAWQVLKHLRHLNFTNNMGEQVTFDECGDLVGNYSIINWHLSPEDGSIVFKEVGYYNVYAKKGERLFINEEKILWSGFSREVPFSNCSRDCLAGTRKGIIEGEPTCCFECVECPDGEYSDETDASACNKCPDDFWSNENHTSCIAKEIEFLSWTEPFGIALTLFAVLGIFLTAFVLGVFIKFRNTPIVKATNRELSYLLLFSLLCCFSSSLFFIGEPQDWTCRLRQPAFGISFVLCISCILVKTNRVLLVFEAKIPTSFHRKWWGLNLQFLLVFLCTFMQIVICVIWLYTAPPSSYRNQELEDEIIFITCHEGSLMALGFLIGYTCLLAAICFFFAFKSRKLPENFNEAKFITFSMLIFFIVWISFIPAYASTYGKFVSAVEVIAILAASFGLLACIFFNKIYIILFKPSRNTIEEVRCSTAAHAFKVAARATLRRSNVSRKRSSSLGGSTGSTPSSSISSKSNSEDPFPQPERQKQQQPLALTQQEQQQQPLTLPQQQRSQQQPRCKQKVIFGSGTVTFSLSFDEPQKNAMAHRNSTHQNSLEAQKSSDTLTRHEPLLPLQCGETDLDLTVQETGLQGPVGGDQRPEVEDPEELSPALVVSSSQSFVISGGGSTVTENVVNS
Experiment: Assay for intracellular free calcium (inhibition of calcium transients stimulated by extracellular calcium)
Type: cell-based
Details: CCL39 fibroblasts stably transfected with human PCaR; "based on the above described assay"
Description: An alternative method to determine antagonism at the PCaR consists in measuring the inhibition of intracellular calcium transients stimulated by extracellular calcium. CCL39 fibroblasts stably transfected with human PCaR are seeded at 40′000 cells/well into 96-well Viewplates and incubated for 24 hours. Medium is then removed and replaced with fresh medium containing 2 μM Fluo-3 AM (Molecular Probes, Leiden, The Netherlands), In routine experiments, cells are incubated at 37° C., 5% CO2 for 1 h. Afterwards, plates are washed twice with mHBS and wells are refilled with 100 μl mHBS containing the test compounds. Incubation is continued at room temperature for 15 minutes. To record changes of intracellular free calcium, plates are transferred to fluorescence-imaging plate reader (Molecular Devices, Sunnyvale, Calif., USA). A baseline consisting in 5 measurements of 0.4 seconds each (laser excitation 488 nm) is recorded. Cells are then stimulated with calcium (2.5 mM final), and fluorescence changes recorded over a period of 3 minutes.

| IC50 [nM] | Compound |
| --- | --- |
| 2.6 | COCCn1c(-c2ccc(C(C)C)cc2)nc2c(C(F)(F)F)c(Cc3cccnc3[S+](C)[O-])cc(OC)c21 (stereo not shown) [Example 3, 2-(4-Isopropyl-phenyl)-5-(2-methanesulfinyl-pyridin-3-ylmethyl)-7-methoxy-1-(2-methoxy-ethyl)-4-trifluoromethyl-1H-benzoimidazole] |
| 3.2 | COCCn1c(-c2ccc(C(C)C)cc2)nc2c(C(F)(F)F)c(Cc3cccnc3OC(C)C)cc(OC)c21 [Example 8, 5-(2-Isopropoxy-pyridin-3-ylmethyl)-2-(4-Isopropyl-phenyl)-7-methoxy-1-(2-methoxy-ethyl)-4-trifluoromethyl-1H-benzoimidazole] |
| 3.4 | COCCn1c(-c2ccc(C(C)C)cc2)nc2c(Br)c(Cc3cccnc3SC)cc(OC)c21 [Example 1, 4-Bromo-2-(4-isopropyl-phenyl)-7-methoxy-1-(2-methoxy-ethyl)-5-(2-methylsulfanyl-pyridin-3-ylmethyl)-1H-benzoimidazole] |
| 1.8 | C#CCOc1ncccc1Cc1cc(OC)c2c(nc(-c3ccc(C(C)C)cc3)n2CCOC)c1C(F)(F)F [Example 9, 2-(4-Isopropyl-phenyl)-7-methoxy-1-(2-methoxy-ethyl)-5-(2-prop-2-ynyloxy-pyridin-3-ylmethyl)-4-trifluoromethyl-1H-benzoimidazole] |
